Assay results as given in patent publication US4663347A, “Benzofuran 2-carboxylic acid esters useful as inhibitors of leukotriene biosynthesis” (Merck Frosst Canada, Inc., priority 1985, dated 1987).
In brackets after ≈: the same amount, converted by molar mass.

What was measured:
[1] = system: leukotriene biosynthesis (mouse peritoneal macrophages); experiment: Mouse Macrophage Assay (leukotriene inhibition); format: cell-based; settings: zymosan stimulated, read-out: LEUKOTRIENE INHIBITION MACROPHAGE ED50
Description: Representative compounds of Formula I have been tested using the following assay to determine their mammalian leukotriene biosynthesis inhibiting activity.
Mouse peritoneal macrophages were treated sequentially with arachidonic acid (labelled with tritium); the compound being evaluated as an inhibitor, and a stimulator (zymosan). Metabolites derived from arachidonic acid (PGE2, 6-keto PG-F1α and Leukotriene C4) were separated from the incubation medium by extraction and chromatography, and then quantitated by determining the amount of radioactivity (cpm) associated with each of them. […] (This protocol is identical to that described in the reference except that the radioactivity herein associated with the LTC4 was determined by counting an aliquot of the final aqueous solution directly rather than chromatographying it first).
Reference: Humes, J. L. et al., J. Biol. Chem. 257, 1591-4 (1982).
The following table (Table II) reflects the leukotriene biosynthesis inhibiting ability of selected compounds of Formula I.

[2] = system: PAF-induced hyperalgesia (female Sprague-Dawley rats); experiment: PAF-Induced Hyperalgesia Assay; format: in vivo, rat; settings: p.o.
Description: PAF-Induced Hyperalgesia Assay
Female Sprague-Dawley rats, 35-40 g were fasted overnight. Platelet activating factor, PAF, (L-lecithin B-acetyl O-alkyl) 1 μg/0.1 ml was given by subplantar injection in the rat paw. The compounds to be evaluated were homogenized in Aqueous Vehicle (0.9% benzyl alcohol, 0.5% Tween 80 and 0.4% methylcellulose) and administered orally in a volume of 0.1 ml, 30 minutes prior to PAF.
Animals were tested 1, 2, 3 and 4 hours after PAF administration. The vocalization threshold, defined as the pressure (mmHg) needed to evoke a squeak response, was recorded for both the injected and contralateral paw. No animal was subjected to pressure greater than 60 mmHg. Hyperalgesia is defined as a decrease in vocalization threshold as compared to a normal paw. Percent inhibition of hyperalgesia was calculated as the proportion of animals with vocalization thresholds greater than 200% of controls.

[3] = system: asthmatic rats; experiment: Asthmatic Rat Assay (duration of antigen-induced dyspnea); format: in vivo
Source text: Rats were obtained from an inbred line of asthmatic rats. Both female and male rats from 200 to 300 g were used.
Egg albumin (EA), grade V, crystallized and lyophilized, was obtained from Sigma Chemical Co., St. Louis, Bordetella pertussis vaccine, containing 30×10^9 killed bacteria per ml was obtained from the Institut Armand-Frappier, Laval des Rapides, Quebec. Aluminum hydroxide was obtained from the Regis Chemical Company, Chicago.
The challenge and subsequent respiratory recordings were carried out in a clear plastic box with internal dimensions 10×6×4 inches. The top of the box was removable; in use, it was held firmly in place by four clamps and an airtight seal was maintained by a soft rubber gasket. […] A Fleisch No. 0000 pneumotachograph was inserted into one end of the box and coupled to a Grass volumetric pressure transducer (PT5-A) which was then connected to a Beckman Type R Dynograph through appropriate couplers. While aerosolizing the antigen, the outlets were open and the pneumatachograph was isolated from the chamber. The outlets were closed and the pneumotachograph and the chamber were connected during the recording of the respiratory patterns. […]
Rats were sensitized by injecting (s.c.) 1 ml of a suspension containing 1 mg EA and 200 mg aluminum hydroxide in saline. […] Rats were then exposed to an aerosol of 3% EA in saline for exactly 1 minute, then their respiratory profiles were recorded for a further 25-30 minutes. The duration of continuous dyspnea was measured from the respiratory recordings.
Compounds were generally administered either intraperitoneally 1 hour prior to challenge or orally 11/2 hours prior to challenge. […] Their activity was determined in terms of their ability to decrease the duration of symptoms of dyspnea in comparison with a group of vehicle-treated controls. Usually, a compound was evaluated at a series of doses and an ED50 was determined. […]

| Structure (SMILES) | IC50 [1] [µg/mL] | also measured |
| --- | --- | --- |
| CCOC(=O)c1oc2cccc(OC(=S)N(C)C)c2c1C | 2.5 to 5 (≈ 8.13 to 16.3 µM) | – |
| CCOC(=O)c1oc2cccc(SC(=O)N(C)C)c2c1C | 5 (≈ 16.3 µM) | – |
| CC(=O)Oc1cccc2oc(C(=O)Nc3ccccc3)c(C)c12 | 0.2 (≈ 0.647 µM) | – |
| CCOC(=O)c1oc2cccc(O)c2c1C [drawing 93] | – | PAF HYPERALGESIA (percent inhibition of hyperalgesia) ([2]; 10 mg/kg): 10%; ASTHMATIC RAT (% inhibition of duration of dyspnea) ([3]; 5 mg/kg, i.v.): 38% |
| Cc1c(C(=O)OC(C)(C)C)oc2cccc(O)c12 [drawing 94] | – | PAF HYPERALGESIA (percent inhibition of hyperalgesia) ([2]; 10 mg/kg): 60%; ASTHMATIC RAT (% inhibition of duration of dyspnea) ([3]; 15 mg/kg, p.o.): 41% |
| CCOC(=O)c1oc2cccc(OC(C)=O)c2c1C [drawing 95] | – | PAF HYPERALGESIA (percent inhibition of hyperalgesia) ([2]; 10 mg/kg): 50%; ASTHMATIC RAT (% inhibition of duration of dyspnea) ([3]; 5 mg/kg, i.v.): 63% |
| Cc1c(C(=O)Nc2ccccc2)oc2cccc(O)c12 [drawing 96] | – | PAF HYPERALGESIA (percent inhibition of hyperalgesia) ([2]; 1.03 mg/kg): 60% |
| Cc1c(C(=O)NNc2ccccc2)oc2cccc(O)c12 [drawing 97] | – | PAF HYPERALGESIA (percent inhibition of hyperalgesia) ([2]; 20 mg/kg): 50% |
| Cc1c(C(=O)NNc2ccc(Cl)cc2)oc2cccc(O)c12 [drawing 98] | – | PAF HYPERALGESIA (percent inhibition of hyperalgesia) ([2]; 1 mg/kg): 60% |

Now from value to compound, other results behind:

| IC50 [1] [µg/mL] | Structure (SMILES) | also measured |
| --- | --- | --- |
| 0.2 (≈ 0.582 µM) | CC(=O)Oc1cccc2oc(C(=O)Nc3ccc(Cl)cc3)c(C)c12 | – |
| 5 (≈ 26 µM) | Cc1c(C(=O)O)oc2cccc(O)c12 | – |
| 0.2 (≈ 0.908 µM) | CCOC(=O)c1oc2cccc(O)c2c1C [drawing 82] | – |
| 1 (≈ 4.03 µM) | Cc1c(C(=O)OC(C)(C)C)oc2cccc(O)c12 [drawing 83] | – |
| 5 (≈ 19.1 µM) | CCOC(=O)c1oc2cccc(OC(C)=O)c2c1C [drawing 86] | – |
| 1 to 5 (≈ 3.74 to 18.7 µM) | Cc1c(C(=O)Nc2ccccc2)oc2cccc(O)c12 [drawing 90] | – |
| 1 (≈ 3.54 µM) | Cc1c(C(=O)NNc2ccccc2)oc2cccc(O)c12 [drawing 91] | – |
| 1 (≈ 3.16 µM) | Cc1c(C(=O)NNc2ccc(Cl)cc2)oc2cccc(O)c12 [drawing 92] | – |
